Experimental data as given in patent US11993599B2, “Therapeutic compounds” (Genentech, Inc., priority 2021, dated 2024).

Experiments:
Format in all cases: cell-based
[1] = molecular target: T1, BRM (Homo sapiens, UniProt P51531); assay: HiBIT nanoluciferase complementation screen for BRM degraders; conditions: 18 hours, BRM-HiBIT KI Hela cells, luminescence normalized: DMSO only = 0%, no cells = −100%; for Median HiBiT activity 1 μM: compound 1 μM; for Median HiBiT activity 10 μM: compound 10 μM
From the text: Example B-1: HiBIT Nanoluciferase Complementation Screen for BRM Degraders
To assess BRM degradation, compounds were screened for their effect of BRM levels using the HiBIT nanoluciferase complementation strategy developed at Promega. In brief, a HELA cell line that was genetically modified via CRISPR/CAS9 was used to fuse the HiBIT sequence at the 3′ end of BRM (BRM-HiBIT KI Hela). BRM protein levels were then detected using the Nano-Glo HiBIT lytic detection reagent (Promega).
The screened compounds were plated into a white 384-well plate at 10 μM and 1 μM in 25 nL DMSO using an Echo dispenser (Labcyte). BRM-HiBIT KI Hela cells were seeded in the compound plate at 5000 cell per well at 25 μl in DMEM growth media (containing 10% FBS, 1% Glutamax (GIBCO cat #31053-028), lx Penicillin-Streptomycin (ROCHE, cat #1107444001), 4.5 g/L D-Glucose, and no phenol red). After incubation with compounds for 18 hours at 37° C., cell viability was assessed by the addition of 5 μl Cell Titer-Fluor reagent (Promega). After 30 s of mixing on an orbital shaker, and 30 minutes incubation at 37° C., fluorescence was measured with an INFINITE F500 (Tecan) (380-400 nm excitation, 505 nm emission). Next, to assess BRM HiBIT levels, 30 μl of Nano-Glo HiBIT lytic detection reagent (Promega) containing 1:50 Nano-Glo HiBIT lytic substrate and 1:100 LgBIT protein per ml of lytic buffer was added. After shaking on an orbital shaker at 350 rpm for 10 minutes, luminescence was measured on the INFINITE F500 (Tecan). To assess compound effects, luminescence signal was normalized with the mean of wells treated with DMSO only set to 0% and the mean of wells containing no cells set to −100%. Note that, in Table 4, the “Compound Number” corresponds to that used in Table 1.

[2] = molecular target: T2, BRG1 (Homo sapiens, UniProt P51532); assay: Immunofluorescence assay for BRG1 degradation in SW1573 cells; conditions: 20 hours incubation; for DC50: immunofluorescence mean nuclear signal, read-out: BRG1 IF Degradation IC50; for Dmax: SW1573, 20 h, normalized to a known degrader control, read-out: BRG1 IF Degradation Sinf (%)
T2 construct: either BRM primary antibody (Cell signaling Cat #11966) or BRG primary antibody (Abcam, ab 110641); endogenous in cells; host or cells: SW1573
Summary of the method: (§1)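 Read-out: mean per-cell nuclear BRM or BRG1 immunofluorescence by automated imaging. SW1573, 20 h compound, 4% formaldehyde fix, Triton permeabilization, overnight 4 °C primary antibody, fluorescent secondary plus Hoechst. Normalized to reference degrader; floating-max curve fit gives Dmax.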

[3] = molecular target: T1, BRM; assay: Immunofluorescence assay for BRM degradation in SW1573 cells; parameters: treated overnight at 4° C. with either BRM primary antibody (Cell signaling Cat #11966) or BRG primary antibody; endogenous in cells; host or cells: SW1573; conditions: 20 hours incubation; for DC50: immunofluorescence mean nuclear signal, read-out: BRM IF Degradation IC50; for BRM IF Degradation Sinf (%): normalized to a known degrader control
Summary of the method: as §1

T1 sequence (P51531 whole entry): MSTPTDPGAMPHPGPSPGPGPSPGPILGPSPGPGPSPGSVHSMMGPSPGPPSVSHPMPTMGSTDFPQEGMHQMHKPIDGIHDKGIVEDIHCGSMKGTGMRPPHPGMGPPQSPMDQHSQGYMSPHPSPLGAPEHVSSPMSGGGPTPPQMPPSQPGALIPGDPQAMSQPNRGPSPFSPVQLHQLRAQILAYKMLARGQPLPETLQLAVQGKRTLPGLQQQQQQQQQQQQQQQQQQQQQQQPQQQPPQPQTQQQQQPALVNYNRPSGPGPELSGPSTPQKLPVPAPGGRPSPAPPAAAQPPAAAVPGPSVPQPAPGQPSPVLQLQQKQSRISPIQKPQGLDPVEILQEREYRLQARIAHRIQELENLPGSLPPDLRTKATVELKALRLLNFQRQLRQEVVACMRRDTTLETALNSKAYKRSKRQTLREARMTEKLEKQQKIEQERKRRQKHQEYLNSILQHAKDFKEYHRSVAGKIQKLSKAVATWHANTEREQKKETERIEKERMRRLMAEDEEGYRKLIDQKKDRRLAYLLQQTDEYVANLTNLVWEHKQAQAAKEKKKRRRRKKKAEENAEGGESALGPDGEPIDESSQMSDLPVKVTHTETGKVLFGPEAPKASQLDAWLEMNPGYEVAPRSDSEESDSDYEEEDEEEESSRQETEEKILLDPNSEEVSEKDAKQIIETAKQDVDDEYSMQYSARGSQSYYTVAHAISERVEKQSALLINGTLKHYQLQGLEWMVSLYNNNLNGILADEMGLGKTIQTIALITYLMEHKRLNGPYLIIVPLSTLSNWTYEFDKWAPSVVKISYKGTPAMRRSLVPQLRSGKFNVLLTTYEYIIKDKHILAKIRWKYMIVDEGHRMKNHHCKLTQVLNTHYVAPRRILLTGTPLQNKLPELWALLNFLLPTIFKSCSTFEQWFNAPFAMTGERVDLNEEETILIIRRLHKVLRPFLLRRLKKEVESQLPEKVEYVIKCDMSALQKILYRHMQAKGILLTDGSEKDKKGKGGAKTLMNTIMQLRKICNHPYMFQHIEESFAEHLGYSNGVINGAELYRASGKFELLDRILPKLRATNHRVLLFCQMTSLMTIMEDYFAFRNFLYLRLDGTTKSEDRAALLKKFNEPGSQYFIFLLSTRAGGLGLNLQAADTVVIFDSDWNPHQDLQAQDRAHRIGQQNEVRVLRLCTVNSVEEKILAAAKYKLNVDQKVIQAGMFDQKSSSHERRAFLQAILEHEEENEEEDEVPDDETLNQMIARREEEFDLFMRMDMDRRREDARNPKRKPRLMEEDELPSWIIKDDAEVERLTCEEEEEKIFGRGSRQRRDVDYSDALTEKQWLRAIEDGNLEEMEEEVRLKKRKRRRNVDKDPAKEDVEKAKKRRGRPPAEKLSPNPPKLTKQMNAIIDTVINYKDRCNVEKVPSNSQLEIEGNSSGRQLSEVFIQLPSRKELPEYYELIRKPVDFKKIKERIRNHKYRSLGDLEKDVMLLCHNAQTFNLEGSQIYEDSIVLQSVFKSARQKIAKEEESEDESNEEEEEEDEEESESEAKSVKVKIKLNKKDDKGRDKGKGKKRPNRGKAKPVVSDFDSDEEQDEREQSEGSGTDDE
T2 sequence (P51532 whole entry): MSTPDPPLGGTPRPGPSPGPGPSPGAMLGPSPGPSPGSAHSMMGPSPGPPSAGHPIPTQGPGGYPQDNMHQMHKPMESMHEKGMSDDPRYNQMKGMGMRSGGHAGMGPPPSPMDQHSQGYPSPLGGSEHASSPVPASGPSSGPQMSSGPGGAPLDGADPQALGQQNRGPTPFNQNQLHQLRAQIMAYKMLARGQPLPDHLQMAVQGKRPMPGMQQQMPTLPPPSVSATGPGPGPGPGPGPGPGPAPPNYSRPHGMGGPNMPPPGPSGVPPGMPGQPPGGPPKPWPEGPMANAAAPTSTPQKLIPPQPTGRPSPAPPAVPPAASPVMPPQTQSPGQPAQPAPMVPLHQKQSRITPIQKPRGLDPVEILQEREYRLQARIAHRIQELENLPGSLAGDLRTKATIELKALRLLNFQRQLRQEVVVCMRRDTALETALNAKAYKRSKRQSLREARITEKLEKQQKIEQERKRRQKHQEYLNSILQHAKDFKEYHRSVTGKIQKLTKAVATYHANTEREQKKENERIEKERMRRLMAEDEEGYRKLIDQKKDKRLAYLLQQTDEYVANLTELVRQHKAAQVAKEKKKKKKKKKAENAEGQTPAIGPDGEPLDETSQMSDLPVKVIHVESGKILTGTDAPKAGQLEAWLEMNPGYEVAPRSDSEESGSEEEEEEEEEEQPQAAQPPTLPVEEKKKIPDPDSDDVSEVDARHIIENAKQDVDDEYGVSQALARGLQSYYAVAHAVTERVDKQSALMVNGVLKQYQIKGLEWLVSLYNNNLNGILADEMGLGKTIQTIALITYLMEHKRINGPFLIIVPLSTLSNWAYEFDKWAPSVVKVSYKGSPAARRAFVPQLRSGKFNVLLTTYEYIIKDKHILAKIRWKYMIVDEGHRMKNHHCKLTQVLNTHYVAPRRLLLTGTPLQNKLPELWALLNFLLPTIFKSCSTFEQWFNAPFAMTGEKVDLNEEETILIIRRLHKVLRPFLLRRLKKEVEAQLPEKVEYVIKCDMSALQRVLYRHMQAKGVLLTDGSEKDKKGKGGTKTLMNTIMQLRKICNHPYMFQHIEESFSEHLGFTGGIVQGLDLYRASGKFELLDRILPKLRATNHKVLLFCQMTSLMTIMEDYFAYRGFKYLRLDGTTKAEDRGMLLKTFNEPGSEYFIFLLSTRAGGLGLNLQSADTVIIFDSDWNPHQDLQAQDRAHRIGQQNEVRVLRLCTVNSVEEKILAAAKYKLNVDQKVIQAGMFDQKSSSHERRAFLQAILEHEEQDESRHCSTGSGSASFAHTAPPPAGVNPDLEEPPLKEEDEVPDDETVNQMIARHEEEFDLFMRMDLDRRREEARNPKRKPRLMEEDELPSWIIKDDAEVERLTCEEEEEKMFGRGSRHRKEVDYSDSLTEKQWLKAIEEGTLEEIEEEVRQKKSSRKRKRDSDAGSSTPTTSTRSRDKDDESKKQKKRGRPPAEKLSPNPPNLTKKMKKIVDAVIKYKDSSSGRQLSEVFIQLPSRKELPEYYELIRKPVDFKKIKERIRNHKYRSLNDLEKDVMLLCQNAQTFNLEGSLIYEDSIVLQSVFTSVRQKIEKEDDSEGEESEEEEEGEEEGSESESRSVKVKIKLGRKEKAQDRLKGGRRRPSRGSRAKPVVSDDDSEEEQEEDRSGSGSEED

Structure (SMILES) | Median HiBiT activity 1 μM [1] [%] | Median HiBiT activity 10 μM [1] [%] | DC50 [2] [µM] | Dmax [2] [%] | DC50 [3] [µM] | BRM IF Degradation Sinf (%) [3]
Nc1nnc(-c2ccccc2O)cc1N1CC2CCC(C1)N2c1ccnc(C#CCCN2CCNCC2)c1 [Compound 1, 2-(6-amino-5-(8-(2-(4-(piperazin-1-yl)but-1-yn-1-yl)pyridin-4-yl)-3,8-diazabicyclo[3.2.1]octan-3-yl)pyridazin-3-yl)phenol] | −87.0122 | −81.2914 | > 0.1 | 71 to 120 | 0.01 to 0.1 | F (F indicates −71%-−120%)
Nc1nnc(-c2ccccc2O)cc1N1CC2CCC(C1)N2c1ccnc(C#CCN2CCCC2)c1 [Compound 2, 2-(6-amino-5-(8-(2-(3-(pyrrolidin-1-yl)prop-1-yn-1-yl)pyridin-4-yl)-3,8-diazabicyclo[3.2.1]octan-3-yl)pyridazin-3-yl)phenol] | −73.6048 | −28.0898 | < 0.01 | 30 to 70 | < 0.01 | E (E indicates −30%-−70%)
CN(CC#Cc1cc(N2C3CCC2CN(c2cc(-c4ccccc4O)nnc2N)C3)ccn1)CCO [Compound 3, 2-(6-amino-5-(8-(2-(3-((2-hydroxyethyl)(methyl)amino)prop-1-yn-1-yl)pyridin-4-yl)-3,8-diazabicyclo[3.2.1]octan-3-yl)pyridazin-3-yl)phenol] | −68.4262 | −39.6172 | 0.01 to 0.1 | 30 to 70 | 0.01 to 0.1 | E (E indicates −30%-−70%)
Nc1nnc(-c2ccccc2O)cc1N1CC2CCC(C1)N2c1ccnc(C#CCOCCO)c1 [Compound 4, 2-(6-amino-5-(8-(2-(3-(2-hydroxyethoxy)prop-1-yn-1-yl)pyridin-4-yl)-3,8-diazabicyclo[3.2.1]octan-3-yl)pyridazin-3-yl)phenol] | −65.5436 | −51.5968 | 0.01 to 0.1 | 0 to 30 | 0.01 to 0.1 | E (E indicates −30%-−70%)
CCN(CC)CC#Cc1cc(N2C3CCC2CN(c2cc(-c4ccccc4O)nnc2N)C3)ccn1 [Compound 5, 2-(6-amino-5-(8-(2-(3-(diethylamino)prop-1-yn-1-yl)pyridin-4-yl)-3,8-diazabicyclo[3.2.1]octan-3-yl)pyridazin-3-yl)phenol] | −63.6385 | −31.0597 | < 0.01 | 30 to 70 | < 0.01 | E (E indicates −30%-−70%)
Nc1nnc(-c2ccccc2O)cc1N1CC2CCC(C1)N2c1ccnc(C#CC2CNC2)c1 [Compound 6, 2-(6-amino-5-(8-(2-(azetidin-3-ylethynyl)pyridin-4-yl)-3,8-diazabicyclo[3.2.1]octan-3-yl)pyridazin-3-yl)phenol] | −61.1458 | −67.7912 | > 0.1 | 0 to 30 | 0.01 to 0.1 | E (E indicates −30%-−70%)
Nc1nnc(-c2ccccc2O)cc1N1CC2CCC(C1)N2c1ccnc(C#CC2CNCCO2)c1 (centres unmarked) [Compound 7, 2-(6-amino-5-(8-(2-(morpholin-2-ylethynyl)pyridin-4-yl)-3,8-diazabicyclo[3.2.1]octan-3-yl)pyridazin-3-yl)phenol] | −56.5569 | −25.5864 | > 0.1 | – | < 0.01 | E (E indicates −30%-−70%)
Nc1nnc(-c2ccccc2O)cc1N1CC2CCC(C1)N2c1ccnc(C#CCC2CCNC2)c1 (centres unmarked) [Compound 34, 2-(6-amino-5-(8-(2-(3-(pyrrolidin-3-yl)prop-1-yn-1-yl)pyridin-4-yl)-3,8-diazabicyclo[3.2.1]octan-3-yl)pyridazin-3-yl)phenol] | −7.217 | −29.4355 | – | – | > 0.1 | –
